System: OVCAR-3 human ovarian adenocarcinoma tumor fragment xenograft
Assay: Pharmacodynamic testing in OVCAR-3 tumor fragment xenograft model
Type: in vivo, BALB/c nude mice
Conditions: 16 days after administration; for Relative tumor volume (x ± S) / Tumor volume (x ± S): mean ± standard error; for Tumor volume (x ± S): in mm³
Description: An anti-tumor effect of Compound 1 of the present invention in a BALB/c nude mouse animal model with subcutaneous OVCAR-3 human ovarian adenocarcinoma tumor fragment xenograft was evaluated.
BALB/c nude mice, female, 6-7 weeks old, purchased from Jiangsu Gempharmatech Biotechnology Co., Ltd.
Mice in a solvent control group were given DMA:CrEL:5% GS=10:10:80 (v:v:v).
AMG650: a proper amount of AMG-650 was weighed, proper amounts of DMA, CrEL and 5% GS were added in sequence, and the obtained system was evenly mixed by ultrasonic vortex to prepare 0.8 mg/mL and 0.4 mg/mL preparations respectively, wherein DMA, CrEL and 5% GS=10:10:80 (v:v:v).
Compound 1: a proper amount of Compound 1 was weighed, proper amounts of DMA, CrEL and 5% GS were added in sequence, and the obtained system was evenly mixed by ultrasonic vortex to prepare 0.8 mg/mL and 0.4 mg/mL preparations respectively, wherein DMA, CrEL and 5% GS=10:10:80 (v:v:v).
An appropriate OVCAR-3 tumor-bearing animal was selected, a 1 mm×1 mm×1 mm OVCAR-3 tumor fragment was acquired aseptically and placed into normal saline for later use, which was used for subcutaneous tumor inoculation in a right side of back of the BALB/c nude mice.
About 1 mm×1 mm×1 mm OVCAR-3 tumor fragment was subcutaneously inoculated in the right side of back of the female BALB/c nude mice. When an average tumor volume reached about 100-250 mm^3, the mice were randomly grouped according to the tumor size, with 6 mice in each group.
Animals in each group were given the test compound once per day according to an animal weight at a fixed time every day by oral administration (po), the animals started to be administered with the test compound for the first time on the day of grouping for 22 consecutive days, and the animal weight was recorded every day. • The 1st group (G1) was a solvent control group; • The 2nd group (G2) and the 3rd group (G3) were orally administered with AMG-650 at administration dosages of 8 mg/kg and 4 mg/kg respectively once per day (QD); and • The 4th group (G4) and the 5th group (G5) were orally administered with Compound 1 at administration dosages of 8 mg/kg and 4 mg/kg respectively once per day (QD).
Tumor formation at an inoculation site of the animals in each group was observed, and a tumor volume was measured twice per week, and calculated according to the following formula: • a tumor volume (TV), a relative tumor volume (RTV), a relative tumor proliferation rate (T/C) and a relative tumor inhibition rate (TGI) were calculated according to the following formulas:
TV (tumor volume)=½×a×b^2, wherein a and b respectively represented a tumor length and a tumor width; (1)
RTV (relative tumor volume)=Vt/V0, wherein V0 was a tumor volume measured at the time of grouping, and Vt was a tumor volume in each measurement; (2)
T/C (%)=TRTV/CRTV×100%, wherein TRTV was RTV of a treatment group, and CRTV was RTV of a solvent control group; and (3)
TGI %=(1−T/C)×100%, wherein T and C were relative tumor volumes of the treatment group and the solvent control group at a specific time point respectively. (4)

SMILES: CCS(=O)(=O)Nc1ccc(C(=O)Nc2cc3c(c(N4CCC(F)(F)CC4)c2)OCC3)c(N2CCC3(CC2)CC3)c1 [Example 1, N-(7-(4,4-difluoropiperidin-1-yl)-2,3-dihydrobenzofuran-5-yl)-4-(ethylsulfonamido)-2-(6-azaspiro[2.5]octan-6-yl)benzamide]
- TGI (4 mg/kg po QD): 81.3%
- Relative tumor volume (x ± S) (4 mg/kg po QD): 0.61 ± 0.11
- Tumor volume (x ± S) (4 mg/kg po QD): 120 ± 27
- TGI (8 mg/kg po QD): 95.2%
- Relative tumor volume (x ± S) (8 mg/kg po QD): 0.16 ± 0.03
- Tumor volume (x ± S) (8 mg/kg po QD): 31 ± 8

Source: patent US20260256763A1, “Aromatic Amide Derivative, And Preparation Method Therefor And Use Thereof” (Zhejiang Hisun Pharmaceutical Co., Ltd., priority 2023, published 2026)
